From PubChem BioAssay AID1259407 (Chemical Carcinogenesis Research Information System (CCRIS), 2018) come the findings set out here.

The test system of the data set is CCRIS mutagenicity, Ames/micronucleus/aberration tests. Nature of the data set: CCRIS mutagenicity studies.
The mark [1] stands for this setting: Test System: AMES SALMONELLA TYPHIMURIUM, Strain/Indicator: TA98, Metabolic Activation: NONE, Method: STANDARD PLATE.
Setting [2] is: Test System: AMES SALMONELLA TYPHIMURIUM, Strain/Indicator: TA100, Metabolic Activation: NONE, Method: STANDARD PLATE.
Setting [3] is: Test System: AMES SALMONELLA TYPHIMURIUM, Strain/Indicator: TA1535, Metabolic Activation: NONE, Method: STANDARD PLATE.
[4] abbreviates: Test System: AMES SALMONELLA TYPHIMURIUM, Strain/Indicator: TA1537, Metabolic Activation: NONE, Method: STANDARD PLATE.
[5] abbreviates: Test System: AMES SALMONELLA TYPHIMURIUM, Strain/Indicator: TA98, Metabolic Activation: NONE, Method: PREINCUBATION

Active and inactive are the calls of the source. How the calls were made is not given here.

Consider `O=C1C=CC(=O)N1c1ccc(Cc2ccc(N3C(=O)C=CC3=O)cc2)cc1`, for which the mutagenic call is, setting by setting: (Test System: AMES SALMONELLA TYPHIMURIUM, Strain/Indicator: TA98, Metabolic Activation: HAMSTER, LIVER, S-9, AROCLOR 1254 (10%), Method: STANDARD PLATE) “inactive; negative”; under setting [1], “inactive; negative”; (Test System: AMES SALMONELLA TYPHIMURIUM, Strain/Indicator: TA98, Metabolic Activation: RAT, LIVER, S-9, AROCLOR 1254 (10%), Method: STANDARD PLATE) “inactive; negative”; (Test System: AMES SALMONELLA TYPHIMURIUM, Strain/Indicator: TA100, Metabolic Activation: HAMSTER, LIVER, S-9, AROCLOR 1254 (10%), Method: STANDARD PLATE) “inactive; negative”; under setting [2], “inactive; negative”; (Test System: AMES SALMONELLA TYPHIMURIUM, Strain/Indicator: TA100, Metabolic Activation: RAT, LIVER, S-9, AROCLOR 1254 (10%), Method: STANDARD PLATE) “inactive; negative”. The mutagenic call is, setting by setting: (Test System: AMES SALMONELLA TYPHIMURIUM, Strain/Indicator: TA1535, Metabolic Activation: HAMSTER, LIVER, S-9, AROCLOR 1254 (10%), Method: STANDARD PLATE) “inactive; negative”; under setting [3], “inactive; negative”; (Test System: AMES SALMONELLA TYPHIMURIUM, Strain/Indicator: TA1535, Metabolic Activation: RAT, LIVER, S-9, AROCLOR 1254 (10%), Method: STANDARD PLATE) “inactive; negative”; (Test System: AMES SALMONELLA TYPHIMURIUM, Strain/Indicator: TA1537, Metabolic Activation: HAMSTER, LIVER, S-9, AROCLOR 1254 (10%), Method: STANDARD PLATE) “inactive; negative”; under setting [4], “inactive; negative”; (Test System: AMES SALMONELLA TYPHIMURIUM, Strain/Indicator: TA1537, Metabolic Activation: RAT, LIVER, S-9, AROCLOR 1254 (10%), Method: STANDARD PLATE) “inactive; negative”. Further, the mutagenic call by setting is: (Test System: AMES SALMONELLA TYPHIMURIUM, Strain/Indicator: TA1538, Metabolic Activation: HAMSTER, LIVER, S-9, AROCLOR 1254 (10%), Method: STANDARD PLATE) “inactive; negative”; (Test System: AMES SALMONELLA TYPHIMURIUM, Strain/Indicator: TA1538, Metabolic Activation: NONE, Method: STANDARD PLATE) “inactive; negative”; (Test System: AMES SALMONELLA TYPHIMURIUM, Strain/Indicator: TA1538, Metabolic Activation: RAT, LIVER, S-9, AROCLOR 1254 (10%), Method: STANDARD PLATE) “inactive; negative”; (Test System: MOUSE LYMPHOMA, Strain/Indicator: L5178Y (TK+/TK-), Metabolic Activation: NONE, Method: SUSPENSION/PLATE) “inactive; negative. reevaluation of results: negative”; (Test System: MOUSE LYMPHOMA, Strain/Indicator: L5178Y (TK+/TK-), Metabolic Activation: RAT, LIVER, S-9, AROCLOR 1254, Method: SUSPENSION/PLATE) “active; positive. reevaluation of results: equivocal”.
As to `CC(=O)C(Cl)(Cl)Cl`, the mutagenic call was “active; positive” under setting [1]; “active; positive” (Test System: AMES SALMONELLA TYPHIMURIUM, Strain/Indicator: TA98, Metabolic Activation: RAT, LIVER, S-9, AROCLOR 1254, Method: STANDARD PLATE); “active; positive” (Test System: AMES SALMONELLA TYPHIMURIUM, Strain/Indicator: TA100, Metabolic Activation: NONE, Method: FLUCTUATION TEST); “active; positive” under setting [2]; “inactive; negative” (Test System: AMES SALMONELLA TYPHIMURIUM, Strain/Indicator: TA100, Metabolic Activation: RAT, LIVER, S-9, AROCLOR 1254, Method: FLUCTUATION TEST); “active; positive” (Test System: AMES SALMONELLA TYPHIMURIUM, Strain/Indicator: TA100, Metabolic Activation: RAT, LIVER, S-9, AROCLOR 1254, Method: STANDARD PLATE). The mutagenic call is “active; positive” under setting [3]; “active; positive” (Test System: AMES SALMONELLA TYPHIMURIUM, Strain/Indicator: TA1535, Metabolic Activation: RAT, LIVER, S-9, AROCLOR 1254, Method: STANDARD PLATE); “inactive; negative” under setting [4]; “inactive; negative” (Test System: AMES SALMONELLA TYPHIMURIUM, Strain/Indicator: TA1537, Metabolic Activation: RAT, LIVER, S-9, AROCLOR 1254, Method: STANDARD PLATE).
Take `CN(Cc1ccccc1)C(=O)CBr`: the mutagenic call is, setting by setting: (Test System: AMES SALMONELLA TYPHIMURIUM, Strain/Indicator: TA100, Metabolic Activation: MOUSE, LIVER, S-9, AROCLOR 1254, Method: STANDARD PLATE) “inactive; negative”; under setting [2], “inactive; negative”.
Take `N.N.[Br-].[Br-].[Pt+2]`: the mutagenic call is “active; positive” under setting [5] and “active; positive” (Test System: AMES SALMONELLA TYPHIMURIUM, Strain/Indicator: TA100, Metabolic Activation: NONE, Method: PREINCUBATION).
For `C[C@H](CCC(=O)NCC(=O)O)[C@H]1CC[C@H]2[C@@H]3[C@@H](O)C[C@@H]4C[C@H](O)CC[C@]4(C)[C@H]3CC[C@]12C`, the mutagenic call (Test System: Ames Salmonella typhimurium, Strain/Indicator: TA98, Metabolic Activation: Rat, Liver, S-9, Aroclor 1254, Method: Plate incorporation) was “inactive; negative”.
On to `O=[N+]([O-])c1ccc2ccc3c4ccccc4cc4ccc1c2c43`, for which the mutagenic call reads like this: (Test System: AMES SALMONELLA TYPHIMURIUM, Strain/Indicator: TA98(1,8-DNP6), Metabolic Activation: NONE) “active; positive”; (Test System: AMES SALMONELLA TYPHIMURIUM, Strain/Indicator: TA98 (1,8-DNP6), Metabolic Activation: NONE, Method: STANDARD PLATE) “active; positive”; (Test System: AMES SALMONELLA TYPHIMURIUM, Strain/Indicator: TA98(NR), Metabolic Activation: NONE) “active; positive”; (Test System: AMES SALMONELLA TYPHIMURIUM, Strain/Indicator: TA98(NR), Metabolic Activation: NONE, Method: PREINCUBATION) “active; positive”; (Test System: AMES SALMONELLA TYPHIMURIUM, Strain/Indicator: TA98 (NR), Metabolic Activation: NONE, Method: STANDARD PLATE) “inactive; negative”; (Test System: AMES SALMONELLA TYPHIMURIUM, Strain/Indicator: TA98, Metabolic Activation: NONE) “active; positive”. The mutagenic call is, setting by setting: (Test System: AMES SALMONELLA TYPHIMURIUM, Strain/Indicator: TA98, Metabolic Activation: NONE', Method: STANDARD PLATE) “active; positive”; under setting [5], “active; positive”; under setting [1], “active; positive”; (Test System: AMES SALMONELLA TYPHIMURIUM, Strain/Indicator: TA98, Metabolic Activation: NONE, Method: STANDARD PLATE (ANAEROBIC)) “active; positive”; (Test System: AMES SALMONELLA TYPHIMURIUM, Strain/Indicator: TA98, Metabolic Activation: RAT, LIVER, HEPATOCYTES, AROCLOR 1254) “active; positive”; (Test System: AMES SALMONELLA TYPHIMURIUM, Strain/Indicator: TA98, Metabolic Activation: RAT, LIVER, S-9, AROCLOR 1254) “active; positive”. Further, the mutagenic call is, setting by setting: under setting [2], “active; positive”; (Test System: CHINESE HAMSTER OVARY, Strain/Indicator: CHO-K1-BH4 (HGPRT), Metabolic Activation: NONE) “inactive; negative”; (Test System: CHINESE HAMSTER OVARY, Strain/Indicator: CHO-K1-BH4 (HGPRT), Metabolic Activation: RAT, LIVER, S-9, 3-METHYLCHOLANTHRENE) “active; positive”; (Test System: CHO/HGPRT, Strain/Indicator: CHO-K1-BH4, Metabolic Activation: NONE) “inactive; negative”; (Test System: CHO/HGPRT, Strain/Indicator: CHO-K1-BH4, Metabolic Activation: RAT, LIVER, HEPATOCYTES) “inactive; negative”; (Test System: CHO/HGPRT, Strain/Indicator: CHO-K1-BH4, Metabolic Activation: RAT, LIVER, HEPATOCYTES, 3-METHYLCHOLANTHRENE) “inactive; negative”. Further, the mutagenic call was “inactive; negative” (Test System: CHO/HGPRT, Strain/Indicator: CHO-K1-BH4, Metabolic Activation: RAT, LIVER, HEPATOCYTES, AROCLOR 1254); “inactive; negative” (Test System: CHO/HGPRT, Strain/Indicator: CHO-K1-BH4, Metabolic Activation: RAT, LIVER, S-9); “active; positive” (Test System: CHO/HGPRT, Strain/Indicator: CHO-K1-BH4, Metabolic Activation: RAT, LIVER, S-9, 3-METHYLCHOLANTHRENE); “active; positive” (Test System: CHO/HGPRT, Strain/Indicator: CHO-K1-BH4, Metabolic Activation: RAT, LIVER, S-9, AROCLOR 1254).
